Measurements: patent US20240217966A1, “PHARMACEUTICAL COMPOSITION CONTAINING GLP-1 RECEPTOR AGONIST HAVING FUSED RING” (Shionogi & Co., Ltd., priority 2021, published 2024)

Molecular target: T1, Human GLP-1 receptor (Homo sapiens, UniProt P43220)
T1 construct: expressed in transfected cells
Assay: Measurement of GLP-1 receptor agonist activity (cAMP assay)
Assay type: cell-based
Conditions: cAMP increase in GLP-1 R/CHO-K1 cells, 2 nM human GLP-1 (7-36) = 100%, DMSO only = 0%; for Emax: CHO-K1, maximum effect, read-out: Emax
How it was run: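 Agonism measured as cAMP accumulation by time-resolved FRET immunoassay in CHO-K1 cells stably expressing human GLP-1 receptor. Cells treated for 1 h at 37 °C with compound and forskolin (400 μM stock), in buffer containing the PDE inhibitors IBMX (0.1 mM) and RO20-1724 (0.2 mM).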

T1 sequence (P43220 24-463): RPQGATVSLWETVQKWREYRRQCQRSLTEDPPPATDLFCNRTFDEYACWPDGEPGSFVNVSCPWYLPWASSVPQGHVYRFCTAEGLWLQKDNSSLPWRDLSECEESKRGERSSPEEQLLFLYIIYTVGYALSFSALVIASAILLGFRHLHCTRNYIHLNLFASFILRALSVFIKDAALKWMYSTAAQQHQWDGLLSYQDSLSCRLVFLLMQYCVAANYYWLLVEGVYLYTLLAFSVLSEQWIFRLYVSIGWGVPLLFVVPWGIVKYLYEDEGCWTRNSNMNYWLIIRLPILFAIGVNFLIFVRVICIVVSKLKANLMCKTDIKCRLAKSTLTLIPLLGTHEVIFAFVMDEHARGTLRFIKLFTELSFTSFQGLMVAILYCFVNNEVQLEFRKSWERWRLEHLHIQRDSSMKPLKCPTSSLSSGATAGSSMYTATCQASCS

SMILES	Emax [%]	EC50 [nM]
C[C@H]1c2nc(OCc3ccc(Cl)cc3F)c(C(F)(F)F)cc2CCN1Cc1nc2c(F)cc(C(=O)O)cc2n1C[C@@H]1CCO1 [Compound I-273]	121	0.0301
COc1cc(C(=O)O)cc2c1nc(CN1CCc3cc(C(F)(F)F)c(OCc4ccc(Cl)cc4F)nc3[C@@H]1C)n2C[C@@H]1CCO1 [Compound I-274]	120	0.0134
C[C@H]1c2nc(OCc3ccc(Cl)cc3F)c(C(F)(F)F)cc2CCN1Cc1nc2ccc(C(=O)O)nc2n1C[C@@H]1CCO1 [Compound I-275]	107	0.246
C[C@H]1c2nc(OCc3ccc(Cl)cc3F)c(Cl)cc2CCN1Cc1nc2ccc(C(=O)O)cc2n1C[C@@H]1CCO1 [Compound I-276]	114	0.0521
O=C(O)c1ccc2nc(CN3CCc4cc(C(F)(F)F)c(OCc5ccccc5Cl)nc4C3)n(C[C@@H]3CCO3)c2c1 [Compound I-277]	96.3	3.2
O=C(O)c1ccc2nc(CN3CCc4cc(C(F)(F)F)c(OCc5cc(F)c(Cl)cc5F)nc4C3)n(C[C@@H]3CCO3)c2c1 [Compound I-278]	109	0.806
O=C(O)c1ccc2nc(CN3CCc4cc(C(F)(F)F)c(OCc5c(F)cc(Cl)cc5F)nc4C3)n(C[C@@H]3CCO3)c2c1 [Compound I-279]	110	–
O=C(O)c1ccc2nc(CN3CCc4cc(C(F)(F)F)c(OCc5c(F)cc(F)cc5F)nc4C3)n(C[C@@H]3CCO3)c2c1 [Compound I-280]	105	0.79
COc1cc(C(=O)O)cc2c1nc(CN1CCc3cc(C(F)(F)F)c(OCc4ccccc4Cl)nc3[C@@H]1C)n2C[C@@H]1CCO1 [Compound I-281]	120	0.00739
COc1cc(C(=O)O)cc2c1nc(CN1CCc3cc(C(F)(F)F)c(OCc4ccc(F)cc4F)nc3[C@@H]1C)n2C[C@@H]1CCO1 [Compound I-282]	114	0.00918
COc1cc(C(=O)O)cc2c1nc(CN1CCc3cc(C(F)(F)F)c(OCc4ccc(OC(F)F)cc4F)nc3[C@@H]1C)n2C[C@@H]1CCO1 [Compound I-283]	118	0.0283
COc1cc(C(=O)O)cc2c1nc(CN1CCc3cc(C(F)(F)F)c(OCc4ccc(F)cc4)nc3[C@@H]1C)n2C[C@@H]1CCO1 [Compound I-284]	119	0.016
COc1cc(C(=O)O)cc2c1nc(CN1CCc3cc(C(F)(F)F)c(OCc4c(F)cc(F)cc4F)nc3[C@@H]1C)n2C[C@@H]1CCO1 [Compound I-285]	130	0.00862
COc1ccc(COc2nc3c(cc2C(F)(F)F)CCN(Cc2nc4ccc(C(=O)O)nc4n2C[C@@H]2CCO2)[C@H]3C)cc1 [Compound I-286]	115	0.444
C[C@H]1c2nc(OCc3ccccc3Cl)c(C(F)(F)F)cc2CCN1Cc1nc2ccc(C(=O)O)nc2n1C[C@@H]1CCO1 [Compound I-287]	116	0.103
C[C@H]1c2nc(OCc3ccc(F)cc3F)c(C(F)(F)F)cc2CCN1Cc1nc2ccc(C(=O)O)nc2n1C[C@@H]1CCO1 [Compound I-288]	115	0.171
C[C@H]1c2nc(OCc3ccc(OC(F)F)cc3F)c(C(F)(F)F)cc2CCN1Cc1nc2ccc(C(=O)O)nc2n1C[C@@H]1CCO1 [Compound I-289]	117	0.311
C[C@H]1c2nc(OCc3ccc(F)cc3)c(C(F)(F)F)cc2CCN1Cc1nc2ccc(C(=O)O)nc2n1C[C@@H]1CCO1 [Compound I-290]	118	0.266
C[C@H]1c2nc(OCc3c(F)cc(Cl)cc3F)c(C(F)(F)F)cc2CCN1Cc1nc2ccc(C(=O)O)nc2n1C[C@@H]1CCO1 [Compound I-291]	120	0.0864
C[C@H]1c2nc(OCc3c(F)cc(F)cc3F)c(C(F)(F)F)cc2CCN1Cc1nc2ccc(C(=O)O)nc2n1C[C@@H]1CCO1 [Compound I-292]	121	0.146
O=C(O)c1ccc2nc(CN3CCc4cc(C(F)(F)F)c(OCc5ccc(Cl)cc5)nc4C3)n(C[C@@H]3CCO3)c2c1F [Compound I-294]	97.7	–
Cc1ccc(COc2nc3c(cc2C(F)(F)F)CCN(Cc2nc4ccc(C(=O)O)c(F)c4n2C[C@@H]2CCO2)C3)cc1 [Compound I-295]	108	1.29
COc1cc(Cl)ccc1COc1nc2c(cc1C(F)(F)F)CCN(Cc1nc3ccc(C(=O)O)c(F)c3n1C[C@@H]1CCO1)C2 [Compound I-296]	117	–
O=C(O)c1ccc2nc(CN3CCc4cc(C(F)(F)F)c(OCc5ccc(F)cc5F)nc4C3)n(C[C@@H]3CCO3)c2c1F [Compound I-297]	102	0.818
O=C(O)c1ccc2nc(CN3CCc4cc(C(F)(F)F)c(OCc5ccc(Cl)cc5Cl)nc4C3)n(C[C@@H]3CCO3)c2c1F [Compound I-298]	109	0.317
O=C(O)c1ccc2nc(CN3CCc4cc(C(F)(F)F)c(OCc5cc(F)c(Cl)cc5F)nc4C3)n(C[C@@H]3CCO3)c2c1F [Compound I-299]	115	0.42

SMILES	Emax [%]	EC50 [nM]
N#Cc1ccc(COc2nc3c(cc2C(F)(F)F)CCN(Cc2nc4ccc(C(=O)O)c(F)c4n2C[C@@H]2CCO2)C3)c(F)c1 [Compound I-300]	112	–
O=C(O)c1ccc2nc(CN3CCc4cc(C(F)(F)F)c(OCc5c(F)cc(Cl)cc5F)nc4C3)n(C[C@@H]3CCO3)c2c1F [Compound I-301]	117	–
O=C(O)c1ccc2nc(CN3CCc4cc(C(F)(F)F)c(OCc5ccc(Cl)cc5)nc4C3)n(C[C@@H]3CCO3)c2n1 [Compound I-302]	110	1.76
COc1cc(Cl)ccc1COc1nc2c(cc1C(F)(F)F)CCN(Cc1nc3ccc(C(=O)O)nc3n1C[C@@H]1CCO1)C2 [Compound I-303]	119	0.681
O=C(O)c1ccc2nc(CN3CCc4cc(C(F)(F)F)c(OCc5ccc(Cl)cc5Cl)nc4C3)n(C[C@@H]3CCO3)c2n1 [Compound I-304]	115	0.869
O=C(O)c1ccc2nc(CN3CCc4cc(C(F)(F)F)c(OCc5cc(F)c(Cl)cc5F)nc4C3)n(C[C@@H]3CCO3)c2n1 [Compound I-305]	107	0.949
O=C(O)c1ccc2nc(CN3CCc4cc(C(F)(F)F)c(OCc5ccc(Cl)cc5F)nc4C3)n(C[C@@H]3CCO3)c2n1 [Compound I-306]	98.7	0.876
C[C@H]1c2nc(OCc3ccc(F)cc3)c(C(F)(F)F)cc2CCN1Cc1nc2c(F)cc(C(=O)O)cc2n1C[C@@H]1CCO1 [Compound I-307]	115	0.0609
C[C@H]1c2nc(OCc3ccc(F)cc3)c(C(F)(F)F)cc2CCN1Cc1nc2ccc(C(=O)O)c(F)c2n1C[C@@H]1CCO1 [Compound I-308]	115	0.0871
C[C@H]1c2cc(OCc3ccc(Cl)cn3)c(Cl)cc2CCN1Cc1nc2ccc(C(=O)O)cc2n1C[C@@H]1CCO1 [Compound I-309]	84.3	2.28
COc1cc(Cl)ccc1COc1cc2c(cc1Cl)CCN(Cc1nc3ccc(C(=O)O)cc3n1C[C@@H]1CCO1)[C@H]2C [Compound I-310]	91	0.415
C[C@H]1c2cc(OCc3ccc(Cl)cc3Cl)c(Cl)cc2CCN1Cc1nc2ccc(C(=O)O)cc2n1C[C@@H]1CCO1 [Compound I-311]	124	0.972
C[C@H]1c2cc(OCc3c(F)cc(Cl)cc3F)c(Cl)cc2CCN1Cc1nc2ccc(C(=O)O)cc2n1C[C@@H]1CCO1 [Compound I-312]	102	2.03
Cc1ccc(COc2cc3c(cc2Cl)CCN(Cc2nc4ccc(C(=O)O)nc4n2C[C@@H]2CCO2)[C@H]3C)cc1 [Compound I-313]	94	7.87
COc1cc(Cl)ccc1COc1cc2c(cc1Cl)CCN(Cc1nc3ccc(C(=O)O)nc3n1C[C@@H]1CCO1)[C@H]2C [Compound I-314]	98.3	0.537
C[C@H]1c2cc(OCc3ccc(Cl)cc3F)c(Cl)cc2CCN1Cc1nc2ccc(C(=O)O)nc2n1C[C@@H]1CCO1 [Compound I-315]	94.3	2.1
C[C@H]1c2cc(OCc3ccc(Cl)cc3Cl)c(Cl)cc2CCN1Cc1nc2ccc(C(=O)O)nc2n1C[C@@H]1CCO1 [Compound I-316]	117	1.66
Cc1ccc(COc2cc3c(cc2Cl)CCN(Cc2nc4ccc(C(=O)O)c(F)c4n2C[C@@H]2CCO2)[C@H]3C)cc1 [Compound I-317]	97.7	2.56
COc1ccc(COc2cc3c(cc2Cl)CCN(Cc2nc4ccc(C(=O)O)c(F)c4n2C[C@@H]2CCO2)[C@H]3C)cc1 [Compound I-318]	91.3	4.55
C[C@H]1c2cc(OCc3ccc(Cl)cc3)c(Cl)cc2CCN1Cc1nc2ccc(C(=O)O)c(F)c2n1C[C@@H]1CCO1 [Compound I-319]	95.3	2.43
C[C@H]1c2cc(OCc3ccc(Cl)cn3)c(Cl)cc2CCN1Cc1nc2ccc(C(=O)O)c(F)c2n1C[C@@H]1CCO1 [Compound I-320]	90.3	1.63
C[C@H]1c2cc(OCc3ccc(C4CC4)cc3)c(Cl)cc2CCN1Cc1nc2ccc(C(=O)O)c(F)c2n1C[C@@H]1CCO1 [Compound I-321]	84	9.85
C[C@H]1c2cc(OCc3ccccc3Cl)c(Cl)cc2CCN1Cc1nc2ccc(C(=O)O)c(F)c2n1C[C@@H]1CCO1 [Compound I-322]	89	3.51
C[C@H]1c2cc(OCc3ccc(F)cc3F)c(Cl)cc2CCN1Cc1nc2ccc(C(=O)O)c(F)c2n1C[C@@H]1CCO1 [Compound I-323]	101	1.7
C[C@H]1c2cc(OCc3ccc(Cl)cc3F)c(Cl)cc2CCN1Cc1nc2ccc(C(=O)O)c(F)c2n1C[C@@H]1CCO1 [Compound I-324]	100	0.466
